Our source for the IC50 values is patent publication US20250084063A1 (Incyte Corporation, priority 2023, published 2025).

Molecules are shown by their SMILES.

Assay [1] concerns the target T1, MRGPRX2 (Homo sapiens, UniProt Q96LB1).
T1 sequence (Q96LB1 1-330): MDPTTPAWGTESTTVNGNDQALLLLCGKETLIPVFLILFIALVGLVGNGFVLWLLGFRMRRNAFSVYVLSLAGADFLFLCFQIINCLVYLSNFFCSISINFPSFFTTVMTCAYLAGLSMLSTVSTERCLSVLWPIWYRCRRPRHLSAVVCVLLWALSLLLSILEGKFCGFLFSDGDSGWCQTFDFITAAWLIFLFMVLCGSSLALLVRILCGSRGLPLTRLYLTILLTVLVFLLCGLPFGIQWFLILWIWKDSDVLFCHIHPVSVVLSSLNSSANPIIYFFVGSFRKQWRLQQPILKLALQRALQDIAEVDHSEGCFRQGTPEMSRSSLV
Kind of assay: MRGPRX2 IP1 HTRF assay. The arrangement: host or cells: CHO-K1. It counts as cell-based. The following applies: CHO-K1 cells stably expressing human MRGPRX2; IP1 accumulation, agonist Cortistatin 14 1 μM. From the text:
Example B: MRGPRX2 IP1 HTRF Assay
This assay measures compound inhibition of myo-Inositol 1 phosphate (IP1) accumulation in CHO-K1 cells. Chinese hamster ovary (CHO-K1) cells stably expressing human MRGPRX2 were purchased from GenScript (Piscataway, NJ).
For the HTRF IP1 determination, an IP-One GqKit (Perkin Elmer Cisbio, Waltham, MA), which includes all reagents and buffers in this protocol, was used. The cells were maintained in culture medium (Ham's F-12K) containing 10% (v/v) FBS, and 200 μg/mL Zeocin. For the assay, the cells were harvested and resuspended in culture medium with 2% FBS and without Zeocin, then were passed through a 40 μm filter. Cells were added at 20000 cells in a 5 μL/well to a 384-well white small volume cell culture plate (Greiner VWR, Radnor, PA) which contained 50 nL/well of test compound serially diluted at a selected concentration range in DMSO. 5 μL/well of prepared 2× Stimulation Buffer2 was then added to plates and was incubated at 37° C. with 5% CO2 for 1 h. 5 μL/well of agonist Cortistatin 14 (Bio-TechneR&D Systems, Minneapolis, MN) in 1× Stimulation Buffer 2, for a 1 μM final concentration, was then added to plates and incubated at 37° C. with 5% CO2 for 1 h. 6 μL/well of 1:20 diluted Detection Reagent Mix (d2 and Cryptate) was added to the plates and incubated for 1 h in the dark. Plates were read on the PHERAstar microplate reader (BMG Labtech Cary, NC) to determine the HTRF ratio of the acceptor and donor emission signals. The IP1 concentrations were calculated from a standard curve following the IP-One GQ kit instructions. Wells with DMSO only and wells with high concentration of reference antagonist were used as controls for normalization. Compound IC50 curves were globally fitted with 3- or 4-parameter Hill equation in a Genedata Screener (Genedata Basel, Switzerland).

In assay [2] the target is T1, MRGPRX2. The assay can be described thus: MRGPRX2 β-Arrestin assay. Particulars: PathHunter CHO-K1 MRGPRX2 β-Arrestin cell line; agonist Cortistatin 14 0.25 μM. It counts as cell-based. The arrangement: host or cells: PathHunter CHO-K1. From the text:
Example C: MRGPRX2 β-Arrestin Assay
This assay measures compound inhibition of β-Arrestin recruitment, which is part of the G protein-independent pathway that results from the ligand-activated GPCR phosphorylation by specific GPCR kinases. The PathHunter CHO-K1 MRPGRX2 B-Arrestin Cell line stably expressing ProLink tagged MRGPRX2 and Enzyme Acceptor Tagged B-Arrestin was purchased from Eurofins DiscoverX, (Fremont, CA).
The cells were maintained in culture medium from the Europhins DiscoverX Cell Culture Kit-107 which includes FBS, hygromycin B and G418. For the assay, the cells were harvested and were resuspended with Cell Plating Reagent 2 (Eurofins DiscoverX). Cells were added 10000 cells in 25 µL/well to a 384-well black cell culture plate (Greiner VWR, Radnor, PA) which contained 125 nL/well of compound at a selected serially diluted concentration range or DMSO. The plate was incubated at 37° C. with 5% CO2 for 1 h. 2 μL/well of agonist Cortistatin 14 was diluted in Protein Dilution Buffer, (Eurofins DiscoverX) for a final concentration of 0.25 μM, was added and the plate was incubated at 37° C. with 5% CO2 for 90 min. 14 μL/well of Detection Reagent Mix (PathHunter Detection Kit, Eurofins DiscoverX) was added to the plates and further incubated for 1 h in the dark. Plates were read on the PHERAstar microplate reader (BMG Labtech Cary, NC) measuring luminescence 0.1 to 1 second per well. Data was normalized using DMSO only wells and wells with high concentration of reference antagonist as controls. Compound IC50 curves were globally fitted with 3- or 4-parameter Hill equation in a Genedata Screener (Genedata Basel, Switzerland).

On to `OC1(C(F)(F)F)CC(CNc2cc(C(F)(F)F)nc3ccc(Cl)cc23)(c2ccccc2)C1` (stereo not drawn) [Example 66, 3-(((6-Chloro-2-(trifluoromethyl)quinolin-4-yl)amino)methyl)-3-phenyl-1-(trifluoromethyl)cyclobutan-1-ol], for which the IC50 on MRGPRX2 [1] and on MRGPRX2 [2] was 0.1 to 100 nM each time.
Consider `O=C(O)C1CCC(CNc2cc(C(F)(F)F)nc3ccc(Cl)cc23)(c2ccccc2)CC1` (stereo not drawn) [Example 67, 4-(((6-Chloro-2-(trifluoromethyl)quinolin-4-yl)amino)methyl)-4-phenylcyclohexane-1-carboxylic acid], for which the half-inhibitory concentration (IC50) on MRGPRX2 [1] and at MRGPRX2 [2] was 0.1 to 100 nM throughout.
For `NS(=O)(=O)NC1CC(CNc2cc(C(F)(F)F)nc3ccc(Cl)cc23)(c2ccccc2)C1` (stereo not drawn) [Example 73, N-((3-Aminosulfonylamino-1-phenylcyclobutyl)methyl)-6-chloro-2-(trifluoromethyl)quinolin-4-amine], the IC50 on MRGPRX2 [1] and at MRGPRX2 [2] was 0.1 to 100 nM in each case.
For `NC(=O)C1(C(=O)NC2CC(CNc3cc(C(F)(F)F)nc4ccc(Cl)cc34)(c3ccccc3)C2)CC1` (stereo not drawn) [Example 74, N-(3-(((6-Chloro-2-(trifluoromethyl)quinolin-4-yl)amino)methyl)-3-phenylcyclobutyl)cyclopropane-1,1-dicarboxamide], the IC50 at MRGPRX2 [1] and on MRGPRX2 [2] was 0.1 to 100 nM throughout.
On to `O=C(N[C@H]1C[C@H](O)C1)N1CCC(CNc2cc(C(F)(F)F)nc3ccc(Cl)cc23)(c2ccc(F)cc2)CC1` [Example 86, 4-(((6-Chloro-2-(trifluoromethyl)quinolin-4-yl)amino)methyl)-4-(4-fluorophenyl)-N-((1r,3r)-3-hydroxycyclobutyl) piperidine-1-carboxamide], for which the IC50 at MRGPRX2 [1] and on MRGPRX2 [2] was 0.1 to 100 nM throughout.
`O=C(N[C@H]1CC[C@H](O)CC1)N1CCC(CNc2cc(C(F)(F)F)nc3ccc(Cl)cc23)(c2ccc(F)cc2)CC1` [Example 87, 4-(((6-Chloro-2-(trifluoromethyl)quinolin-4-yl)amino)methyl)-4-(4-fluorophenyl)-N-((1r,4r)-4-hydroxycyclohexyl) piperidine-1-carboxamide]: the IC50 on MRGPRX2 [1] and on MRGPRX2 [2] was 0.1 to 100 nM throughout.
On to `O=C(N[C@H]1CC[C@H](O)CC1)N1CC(CNc2cc(C(F)(F)F)nc3ccc(Cl)cc23)(n2cc(F)cn2)C1` [Example 88, 3-(((6-Chloro-2-(trifluoromethyl)quinolin-4-yl)amino)methyl)-3-(4-fluoro-1H-pyrazol-1-yl)-N-((1r,4r)-4-hydroxycyclohexyl)azetidine-1-carboxamide], for which the IC50 on MRGPRX2 [1] and at MRGPRX2 [2] was 0.1 to 100 nM throughout.
As for `C[C@]1(O)CC[C@@H](NC(=O)N2CC(CNc3cc(C(F)(F)F)nc4ccc(Cl)cc34)(n3cc(F)cn3)C2)CC1` [Example 89, 3-(((6-Chloro-2-(trifluoromethyl)quinolin-4-yl)amino)methyl)-3-(4-fluoro-1H-pyrazol-1-yl)-N-((1s,4s)-4-hydroxy-4-methylcyclohexyl)azetidine-1-carboxamide], the 50% inhibitory concentration (IC50) on MRGPRX2 [1] and at MRGPRX2 [2] was 0.1 to 100 nM in each case.
With `O=C(N[C@@H]1CC[C@@H](O)C1)N1CC(CNc2cc(C(F)(F)F)nc3ccc(Cl)cc23)(c2ccc(F)cc2)C1` [Example 90, 3-(((6-Chloro-2-(trifluoromethyl)quinolin-4-yl)amino)methyl)-3-(4-fluorophenyl)-N-((1R,3R)-3-hydroxycyclopentyl)azetidine-1-carboxamide], the IC50 on MRGPRX2 [1] and at MRGPRX2 [2] was 0.1 to 100 nM in each case.
As to `N#C[C@H]1CC[C@H](NC(=O)N2CC(CNc3cc(C(F)(F)F)nc4ccc(Cl)cc34)(c3ccc(F)cc3)C2)CC1` [Example 91, 3-(((6-Chloro-2-(trifluoromethyl)quinolin-4-yl)amino)methyl)-N-((1r,4r)-4-cyanocyclohexyl)-3-(4-fluorophenyl)azetidine-1-carboxamide], the IC50 at MRGPRX2 [1] and on MRGPRX2 [2] was 0.1 to 100 nM throughout.
Consider `Fc1ccc(C2(CNc3cc(C(F)(F)F)nc4ccc(Cl)cc34)CN(Cc3cn[nH]c3)C2)cc1` [Example 93, N-((1-((1H-Pyrazol-4-yl)methyl)-3-(4-fluorophenyl)azetidin-3-yl)methyl)-6-chloro-2-(trifluoromethyl)quinolin-4-amine], for which the IC50 at MRGPRX2 [1] and on MRGPRX2 [2] was 0.1 to 100 nM each time.
Consider `Cc1nc(CN2CC(CNc3cc(C(F)(F)F)nc4ccc(Cl)cc34)(c3ccc(F)cc3)C2)c[nH]1` [Example 94, 6-Chloro-N-((3-(4-fluorophenyl)-1-((2-methyl-1H-imidazol-4-yl)methyl)azetidin-3-yl)methyl)-2-(trifluoromethyl)quinolin-4-amine], for which the IC50 at MRGPRX2 [1] and at MRGPRX2 [2] was 0.1 to 100 nM in each case.
Turning to `[O-][n+]1ccc(CN2CC(CNc3cc(C(F)(F)F)nc4ccc(Cl)cc34)(c3ccc(F)cc3)C2)cc1` [Example 95, 4-((3-(((6-Chloro-2-(trifluoromethyl)quinolin-4-yl)amino)methyl)-3-(4-fluorophenyl)azetidin-1-yl)methyl)pyridine 1-oxide], the IC50 at MRGPRX2 [1] and on MRGPRX2 [2] was 0.1 to 100 nM in each case.
For the compound `NC1CC(CNc2cc(C(F)(F)F)nc3ccc(Cl)cc23)(c2ccccc2)C1` (stereo not drawn) [Example 96, N-((3-Amino-1-phenylcyclobutyl)methyl)-6-chloro-2-(trifluoromethyl)quinolin-4-amine], the IC50 at MRGPRX2 [1] and at MRGPRX2 [2] was 0.1 to 100 nM in each case.
With `[2H]C([2H])([2H])NC(=O)N1CC(CNc2cc(C(F)(F)F)nc3ccc(Br)cc23)(n2cc(F)cn2)C1` [Example 97, 3-(((6-Bromo-2-(trifluoromethyl)quinolin-4-yl)amino)methyl)-3-(4-fluoro-1H-pyrazol-1-yl)-N-(methyl-d3)azetidine-1-carboxamide], the IC50 at MRGPRX2 [1] and at MRGPRX2 [2] was 0.1 to 100 nM in each case.
